Results reported in US9421222B2, “Treatment of compartment syndrome” (LONDON HEALTH SCIENCES CENTRE RESEARCH INC., priority 2013, dated 2016).
“Also recorded” adds a separate entry of the source.

What was measured:
Type in all cases: in vivo
[1] = test system: TNF-α; test: Serum TNF-α time course in porcine model of CS; settings: pig, 6 h elevated ICP, 10 mg/kg, 3 h reperfusion
Procedure: (§1) Following the basic surgical setup (anesthesia, intubation, auricular vein and femoral artery catheterization), the animals undergo 6 hours of elevated intra-compartmental pressure (i.e. CS), followed by fasciotomy and reperfusion. The time interval was chosen in order to closely mimic the condition in human patients. CORM-3 (or iCORM-3), 10 mg/kg of animal is applied prior to fasciotomy. Blood is sampled at various time intervals (baseline, 1 hr CS, 2 hr CS, 3 hr CS, 4 hr CS, 5 hr CS, 6 hr CS/fasciotomy, and every 10-15 min post-fasciotomy, for a total of 20 samples per animal), in order to monitor leukocyte activation and serum TNF-α levels. IVVM is carried out at 3 hours post-fasciotomy.

[2] = test system: TNF-α; test: Serum TNF-α (ELISA) in rat CS model; settings: 30 and 45 minutes post-fasciotomy, 10 mg/kg IP
Procedure: TNF-α levels were measured from arterial blood samples drawn at 9 time points: (1) baseline, (2) 15 minutes into CS, (3) 45 minutes into CS, (4) 90 minutes into CS, (5) 2 hours into CS-just prior to fasciotomy and CORM-3 (or iCORM-3) injection, (6) 10 minutes post-fasciotomy, (7) 20 minutes post fasciotomy, (8) 30 minutes post fasciotomy, (9) 45 minutes post fasciotomy, just before IVVM. TNF-α was assessed using enzyme-linked immunosorbent assay (ELISA, Pierce Biotechnology, c/o Thermo Scientific, Rockford, Ill.) according to manufacturer's instructions. The TNF-α ELISA was sensitive to less than […].

[3] = test system: CS-challenged skeletal muscle (EDL); test: Rat compartment syndrome model, intravital video microscopy (IVVM) of EDL muscle
From the text: (§2) The experimental protocol was approved by the Council on Animal Care of the University of Western Ontario, and has been previously described in detail. Briefly, male Wistar rats (body weight 180-250 g) were anesthetized by inhalational isoflurane (5% induction, 2% maintenance) in 1:1 oxygen/nitrogen mixture. Left carotid artery was cannulated to allow for the monitoring of systemic blood pressure, fluid administration and blood sampling.
(§3) Compartment pressure monitoring probe (Synthes, Westchester Pa.) was inserted into the posterior compartment via gauge 16 angiocatheter (BD), while gauge 24 angiocatheter (BD) attached to an IV line was placed into the anterior compartment of the rat hind limb. CS was induced by an infusion of isotonic saline, leading to an elevation of intra-compartmental pressure (ICP) to 30 mmHg. Elevated ICP was maintained for 2 hours. Fasciotomy was performed to decompress the hind limb compartments; the muscles were allowed to reperfuse for 45 minutes, followed by intravital video microscopy.
(§4) Rats were randomly assigned to one of four experimental groups: sham (n=4), CS (n=4), CS+CORM-3 (n=8) and CS+iCORM-3 (n=8).
The extensor digitorum longus (EDL) muscle was dissected to the level of its distal tendon, which was tied with a suture and cut from its bony insertion. The animal was transferred onto the stage of an inverted microscope (Nikon™); the EDL was reflected into a saline bath containing 5 μg/ml each of the fluorescent vital dyes bisbenzimide (BB; exc. 343 nm, em. 483 nm) and ethidium bromide (EB; exc. 482 nm, em. 616 nm). BB stains the nuclei of all cells while EB stains the nuclei of only those cells with damaged cell membrane. Thus, EB/BB ratio provided an index of tissue injury.
Microvascular perfusion and leukocytes within the post-capillary venules were recorded by translumination with 20× and 40× objectives, respectively, in five adjacent fields of view. Fluorescence microscopy was used to visualize the BB and EB from the same fields of view that had been selected for the measurement of capillary perfusion. At the conclusion of the experiment, rats were euthanized by an overdose of anesthetic agent.
Capillary perfusion was assessed by counting the number of continuously-perfused (CPC), intermittently-perfused (IPC) and non-perfused (NPC) capillaries that crossed three parallel lines drawn perpendicular to the capillary axis on the video monitor, and was expressed as % of total capillaries. Tissue injury was assessed by counting the number of EB- and BB-labelled nuclei, and expressed as EB/BB ratio. Leukocyte activation was assessed by counting the numbers of rolling and adherent leukocytes in post-capillary venules and expressed per 1000 μm^2. Venular area was measured using ImageJ (NIH, Bethesda, Md.). A leukocyte was considered adherent if it remained stationary for at least 30 seconds, and a cell was considered rolling if it remained in contact with the wall of the vessel during its movement.

[4] = test system: compartment syndrome; test: Porcine model of compartment syndrome: PMN activation and capillary perfusion (IVVM); settings: pig, 6 h elevated ICP, 10 mg/kg
Procedure: as §1

[5] = test system: compartment syndrome; test: CatWalk gait assessment in rats after CS without fasciotomy; settings: rat, 180 min CS, no fasciotomy
Procedure: Animal preparation and synthesis of CORM-3 were similar to Example 3.
Complete inducement of CS occurred at about 180 minutes post induction. The animals were injected at 180 minutes and every 24 hours thereafter.
Quantitative assessment of footfalls and gait in the rats was assessed using CatWalk™, which a system for quantitative assessment of footfalls and gait in rats and mice.

[6] = Systemic leukocyte counts, hemoglobin and carboxyhemoglobin in rat CS model
From the text: as §2, §3, §4
Two hours of elevated ICP were followed by fasciotomy, injection of CORM-3 (or iCORM-3) and 45 min reperfusion. CS-associated rise in systemic leukocytes was reversed by CORM-3 application (*p<0.01 from sham; †p<0.05 from CS+iCORM-3). CORM-3 and iCORM-3 caused no changes in systemic levels of COHb. LKC, leukocyte counts; COHb, carboxyhemoglobin.

[7] = rat CS model, 10 mg/kg IP at fasciotomy
[8] = rat CS model, CORM-3 versus control
[9] = rat, 2 h elevated ICP, fasciotomy, 10 mg/kg IP, 45 min reperfusion, mean±SEM

NCC(=O)O.[C-]#[O+].[C-]#[O+].[C-]#[O+].[Cl][Ru] [CORM-3, tricarbonylchloro-glycinate-ruthenium(II)]
Serum TNF-α release associated with post-fasciotomy/reperfusion [1]: prevented any TNF-α release
Serum TNF-α in post-fasciotomy/reperfusion period [2]: effectively prevented; also recorded: reversed
Effect on leukocyte adhesion within post-capillary venules ([3]; rat CS model, 10 mg/kg IP): prevent leukocyte adhesion
Effect on leukocyte rolling ([3]; rat CS model, 10 mg/kg IP): no effect
Effect on CS-associated microvascular perfusion changes [3, 7]: reversed
Effect on CS-associated tissue injury [3, 7]: reversed
Decrease in leukocyte adherence (leukocyte activation) [3, 8]: 8 fold
Decrease in tissue injury [3, 8]: 4 fold
Leukocyte adherence in post-capillary venules [3, 9]: 0.6±0.3 leukocytes/30 s/1000 μm^2
Leukocyte rolling in post-capillary venules [3, 9]: 3.0±0.8 leukocytes/30 s/1000 μm^2
Muscle injury, EB/BB ratio [3, 9]: 0.07±0.01
Continuously-perfused capillaries (CPC) ([3]; rat, % of total capillaries, 2 h elevated ICP, fasciotomy, 10 mg/kg IP, 45 min reperfusion, mean±SEM): 57±5%
Continuously-perfused capillaries (CPC) ([4]; IVVM 3 h post-fasciotomy): increase
Intermittently-perfused capillaries (IPC) ([4]; IVVM 3 h post-fasciotomy): decrease
Non-perfused capillaries (NPC) ([4]; IVVM 3 h post-fasciotomy): decrease
Number of activated PMNs post-fasciotomy ([4]; fasciotomy, versus iCORM-3): significant decrease
Static and dynamic gait functional parameters (CatWalk) ([5]; 10 mg/kg IP at 180 min and every 24 h, relative to iCORM-3): significantly improved
Weight bearing parameters (CatWalk) ([5]; multi dose 10 mg/kg IP): improvement
Effect on COHb levels ([6]; rat CS model, 10 mg/kg IP): no effect
Effect on CS-associated rise in systemic leukocyte counts [6, 7]: decrease the severity of this response
COHb (carboxyhemoglobin) [6, 9]: 1.6 ± 0.1%
Hemoglobin [6, 9]: 129.5 ± 2.7 g/L
LKC (systemic leukocyte counts) [6, 9]: 2.3 ± 0.2^† Units × 10^9/L
